Experimental data taken from publication PMC7271668 (Frontiers in Pharmacology, 2020).
Several values for one entry are separate records, joined by “and”; a condition that tells them apart may be missing. Equal entries are not always repeated. Where two headings read alike, the source gives them in different places.

Columns and labels:
human OAT3 [1] = biological target: T1, human OAT3 (Homo sapiens, UniProt Q8TCC7); experiment: Inhibition of OAT3-mediated enalaprilat uptake in OAT3-transfected HEK293 cells
T1 sequence (Q8TCC7 1-542): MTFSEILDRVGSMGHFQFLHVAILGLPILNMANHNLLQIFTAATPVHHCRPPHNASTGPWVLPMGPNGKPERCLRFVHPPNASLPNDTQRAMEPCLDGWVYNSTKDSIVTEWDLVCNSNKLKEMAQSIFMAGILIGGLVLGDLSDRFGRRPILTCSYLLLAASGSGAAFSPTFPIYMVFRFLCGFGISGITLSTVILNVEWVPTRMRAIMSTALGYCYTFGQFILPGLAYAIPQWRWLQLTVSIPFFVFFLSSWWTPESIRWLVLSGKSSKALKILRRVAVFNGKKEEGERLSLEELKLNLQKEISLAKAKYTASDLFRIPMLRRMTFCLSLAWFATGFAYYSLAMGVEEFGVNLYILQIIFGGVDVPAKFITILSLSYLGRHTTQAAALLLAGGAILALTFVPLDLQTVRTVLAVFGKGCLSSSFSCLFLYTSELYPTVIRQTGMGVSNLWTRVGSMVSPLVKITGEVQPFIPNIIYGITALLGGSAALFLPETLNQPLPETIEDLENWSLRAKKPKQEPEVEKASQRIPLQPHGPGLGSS
Method: Because the present study examined a number of compounds with structural diversity, a 30 min preincubation was carried out for all compounds in order to eliminate inconsistencies. […] OAT3-transfected HEK293 cells or mock cells were washed thrice with pre-warmed HBSS and preincubated with HBSS containing different concentrations of inhibitors for 30 min at 37°C.
For sample preparation before analysis, 100 μl acetonitrile containing 500 nM tolbutamide (internal standard, IS) was added as a protein-precipitating agent to 50-μl cell samples. All samples were vortexed for 2 min and centrifuged at 13,000 rpm for 10 min. Ten microliters of the supernatants were transferred into injection vials for concentration determination.
The LC-MS/MS system consisted of an API 4000 Qtrap mass spectrometer equipped with a turbo-V ionization source (Applied Biosystems, Foster City, CA, USA), two LC-20AD pumps with a CBM-20A controller, a DGU-20A solvent degasser, and a SIL-20A autosampler (Shimadzu, Columbia, MD, USA). A reverse phase C18 column (50×2.1 mm, 5 µm particle size; Agela, China) and a gradient elution at 0.3 ml/min were employed for chromatographic separation. […] Analyst 1.6.3 (AB SCIEX, USA) was used to collect and process the data.
where I was the inhibitor concentration.

[2] = cited from earlier work; for Excreted into the urine, % of the dose: after oral administration of enalapril, MacFadyen et al., 1993
human OAT3 [3] = biological target: T1, human OAT3; experiment: Enalaprilat uptake kinetics in HEK293 cells overexpressing human OAT3; format: in vitro ADME; set-up: expressed in transfected cells; gift of Prof; Dafang Zhong, Shanghai Institute of Materia Medica
Method: (§1) Human embryonic kidney 293 (HEK293) cells stably overexpressing human OAT1, OAT3, organic cation transporter 2 (OCT2), OATP1B1, OATP1B3 or OATP2B1 as well as empty vectors were generously provided by Professor Dafang Zhong, Shanghai Institute of Materia Medica, Chinese Academy of Sciences (Shanghai, China). Respective transport activities had been validated using specific probe substrates ([Zhong et al., 2014]). All cells were grown in DMEM supplemented with 10% FBS, at 37°C with 5% CO2 and 95% humidity.
(§2) Cells were seeded in 24-well plates at a density of 200,000 cells per well and cultured in high glucose DMEM for 48 h. On the third day and prior to the start of the uptake experiment, cells were washed thrice with pre-warmed HBSS and then incubated with HBSS for 30 min at 37°C. […] Incubations were terminated 5 min after the addition of substrate by washing with ice-cold HBSS. Cells were immediately lysed with 200 μl ultrapure water by repeated freezing and thawing up to three times. Intracellular drug concentrations were determined using a liquid chromatography - tandem mass spectrometry (LC-MS/MS) method. Cellular protein levels were estimated using the Bicinchoninine acid assay per manufacturer’s instruction (Takara, Japan).
(§3) Kinetic parameters of transporter-mediated uptake were estimated by nonlinear regression analysis using GraphPad Prism 5.01 (La Jolla, CA, USA). […]

human OAT1 = biological target: T2, human OAT1 (Homo sapiens, UniProt Q4U2R8); experiment: Enalaprilat uptake kinetics in HEK293 cells overexpressing human OAT1; format: in vitro ADME; conditions: OAT1-transfected HEK293, net uptake (mock subtracted), enalaprilat 0-500 μM, 5 min incubation
T2 construct: expressed in transfected cells; gift of Prof; Dafang Zhong, Shanghai Institute of Materia Medica
T2 sequence (Q4U2R8 1-563): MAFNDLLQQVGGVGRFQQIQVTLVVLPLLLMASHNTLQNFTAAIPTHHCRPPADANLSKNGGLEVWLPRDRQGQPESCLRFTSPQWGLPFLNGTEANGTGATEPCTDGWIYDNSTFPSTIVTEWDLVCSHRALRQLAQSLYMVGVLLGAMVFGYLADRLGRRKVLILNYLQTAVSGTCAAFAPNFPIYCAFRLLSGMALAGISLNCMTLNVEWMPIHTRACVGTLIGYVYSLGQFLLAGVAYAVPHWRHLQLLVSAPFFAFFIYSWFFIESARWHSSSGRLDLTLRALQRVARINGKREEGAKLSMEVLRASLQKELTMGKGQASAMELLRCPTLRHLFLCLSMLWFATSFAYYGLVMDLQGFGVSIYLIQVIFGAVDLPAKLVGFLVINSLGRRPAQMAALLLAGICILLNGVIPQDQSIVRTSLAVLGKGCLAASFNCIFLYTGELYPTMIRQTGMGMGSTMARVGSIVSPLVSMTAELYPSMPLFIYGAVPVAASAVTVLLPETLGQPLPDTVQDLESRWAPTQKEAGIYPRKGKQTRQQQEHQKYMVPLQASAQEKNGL
Method: as §1, §2, §3

human OATP2B1 = biological target: T3, human OATP2B1 (Homo sapiens, UniProt O94956); experiment: Enalaprilat uptake kinetics in HEK293 cells overexpressing human OATP2B1; format: in vitro ADME; conditions: OATP2B1-transfected HEK293, net uptake (mock subtracted), enalaprilat 0-500 μM, 5 min incubation
T3 construct: expressed in transfected cells; gift of Prof; Dafang Zhong, Shanghai Institute of Materia Medica
T3 sequence (O94956 1-709): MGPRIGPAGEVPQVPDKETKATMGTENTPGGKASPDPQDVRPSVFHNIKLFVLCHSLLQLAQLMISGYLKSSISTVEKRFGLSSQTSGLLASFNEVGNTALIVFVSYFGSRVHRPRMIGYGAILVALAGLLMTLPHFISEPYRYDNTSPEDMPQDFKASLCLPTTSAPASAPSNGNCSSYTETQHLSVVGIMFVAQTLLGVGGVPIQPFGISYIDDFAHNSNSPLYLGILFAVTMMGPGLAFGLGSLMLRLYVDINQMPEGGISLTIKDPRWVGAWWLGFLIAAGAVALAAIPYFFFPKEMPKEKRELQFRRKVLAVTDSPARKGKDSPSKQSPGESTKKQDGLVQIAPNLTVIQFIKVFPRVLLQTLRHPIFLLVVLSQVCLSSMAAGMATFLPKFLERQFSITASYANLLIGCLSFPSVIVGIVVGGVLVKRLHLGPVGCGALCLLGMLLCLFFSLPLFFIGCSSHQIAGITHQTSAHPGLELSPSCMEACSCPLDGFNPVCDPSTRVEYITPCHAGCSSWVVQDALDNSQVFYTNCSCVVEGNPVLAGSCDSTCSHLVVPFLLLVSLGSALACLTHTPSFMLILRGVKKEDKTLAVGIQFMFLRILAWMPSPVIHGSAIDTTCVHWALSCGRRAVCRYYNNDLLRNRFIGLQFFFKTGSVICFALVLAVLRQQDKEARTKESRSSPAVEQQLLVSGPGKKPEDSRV
Method: as §1, §2, §3

OAT1 = tested on: OAT1; set-up: method as in Tan et al., 2017; conditions: ref Tan et al., 2017; cited from earlier work
OAT4 = tested on: OAT4; set-up: method as in Tan et al., 2017; conditions: ref Tan et al., 2017; cited from earlier work
OAT3 = conditions: cited from earlier work
[4] = IC50, inhibition of enalaprilat uptake by selected drugs, HEK293-OAT3, enalaprilat 30 µM, 30 min preincubation, mean ± sd of three incubations

SMILES	IC50 (human OAT3 [1])	IC50 (human OAT3 [1]; [4])	other results
O=c1cc(-c2ccc(O)cc2)oc2cc(O)cc(O)c12 [Apigenin]	330 ± 90 nM	–	–
O=c1cc(-c2ccc(O)cc2)oc2cc(O[C@@H]3O[C@H](CO)[C@@H](O)[C@H](O)[C@H]3O)cc(O)c12 [Apigetrin]	7800 ± 4030 nM	–	–
CCc1oc2ccccc2c1C(=O)c1cc(Br)c(O)c(Br)c1 [Benzbromarone]	–	140 nM and < 1000 nM	–
O=c1cc(-c2ccccc2)oc2cc(O)cc(O)c12 [Chrysin]	44 ± 13 nM	–	–
O=c1c(-c2ccc(O)cc2)coc2cc(O)ccc12 [Daidzein]	5800 ± 3960 nM	–	–
CCOC(=O)[C@H](CCc1ccccc1)N[C@@H](C)C(=O)N1CCC[C@H]1C(=O)O [Enalapril]	–	–	Plasma exposure, fold lower than that of enalaprilat ([2]; after enalapril administration, ref Li et al., 2017): about 4.5 fold; Excreted into the urine, % of the dose ([2]; ref Ulm et al., 1982): 18 % of the dose; Fraction of the dose converted to enalaprilat ([2]; oral enalapril, dose 10 mg, man, ref Ulm et al., 1982): about 40%; Transport by OAT3 (substrate status) (human OAT3 [3]; OAT3-transfected HEK293, Supplementary Figure 1): could also be transported by OAT3
C[C@H](N[C@@H](CCc1ccccc1)C(=O)O)C(=O)N1CCC[C@H]1C(=O)O [Enalaprilat]	–	–	Vmax (human OAT1): 42.4 ± 1.3 nmol/min/mg protein; Vmax (human OATP2B1): 20.1 ± 2.7 nmol/min/mg protein; Excreted into the urine, % of the dose ([2]; ref Ulm et al., 1982): 43 % of the dose; Vmax (human OAT3 [3]; OAT3-transfected HEK293, net uptake (mock subtracted), enalaprilat 0-500 μM, 5 min incubation): 87.4 ± 1.1 nmol/min/mg protein
O=C1C[C@@H](c2ccc(O)c(O)c2)Oc2cc(O)cc(O)c21 [Eriodictyol]	1480 ± 600 nM	–	–
O=c1c(O)c(-c2ccccc2)oc2cc(O)cc(O)c12 [Galangin]	30 ± 26 nM	–	–
O=c1c(O)c(-c2ccc(O)c(O)c2)oc2c(O)c(O)cc(O)c12 [Gossypetin]	710 ± 80 nM	–	–
O=c1c(O[C@@H]2O[C@H](CO)[C@@H](O)[C@H](O)[C@H]2O)c(-c2ccc(O)c(O)c2)oc2cc(O)cc(O)c12 [Isoquercetin]	11700 ± 2060 nM	–	–
O=c1c(O)c(-c2cc(O)c(O)c(O)c2)oc2cc(O)cc(O)c12 [Myricetin]	22600 ± 6860 nM	–	–
CC(C)(Sc1ccncc1-c1ccc(C#N)c2ccccc12)C(=O)O [Verinurad]	–	800 nM and < 1000 nM	Affinity for OAT1, fold lower as compared to URAT1 (OAT1): approximately 200 fold; Affinity for OAT4, fold lower as compared to URAT1 (OAT4): approximately 200 fold
NNC(=O)c1ccncc1 [isoniazid]	–	–	Km (OAT3; read-out: Km as OAT3 substrate, ref Parvez et al., 2018): 234 µM
O=S(=O)(O)CCS [mesna]	–	–	Km (OAT3; read-out: Km as OAT3 substrate, ref Cutler et al., 2012): 390 µM
C=C1CC23CCC4C(C)(C(=O)OC5OC(C(=O)O)C(O)C(O)C5O)CCCC4(C)C2CCC1(O)C3 (centres unmarked) [steviol acyl glucuronide]	–	–	Km (OAT3): 368 µM

The next lines start with results.

IC50 (human OAT3 [1])	IC50 (human OAT3 [1]; [4])	SMILES	other results
–	410 ± 50 nM	Cc1nc(-c2ccc(OCC(C)C)c(C#N)c2)sc1C(=O)O [Febuxostat]	–
3820 ± 1600 nM	–	O=c1c(O)c(-c2ccc(O)c(O)c2)oc2cc(O)ccc12 [Fisetin]	–
–	3500 ± 510 nM	Cc1ccc(C)c(OCCCC(C)(C)C(=O)O)c1 [Gemfibrozil]	–
–	370 ± 40 nM	CCC1=C(C)CN(C(=O)NCCc2ccc(S(=O)(=O)NC(=O)N[C@H]3CC[C@H](C)CC3)cc2)C1=O [Glimepiride]	–
88 ± 14 nM	–	O=c1c(O)c(-c2ccc(O)cc2)oc2cc(O)cc(O)c12 [Kaempferol]	–
–	800 nM and < 1000 nM	O=C(O)CSc1nnc(Br)n1-c1ccc(C2CC2)c2ccccc12 [Lesinurad]	–
660 ± 110 nM	–	O=c1cc(-c2ccc(O)c(O)c2)oc2cc(O)cc(O)c12 [Luteolin]	–
1220 ± 180 nM	–	CC(C)=CCc1c(-c2ccc(O)cc2O)oc2c(CC=C(C)C)c(O)cc(O)c2c1=O [Mulberrin]	–
220 ± 120 nM	–	COc1c(O)cc2oc(-c3ccccc3)cc(=O)c2c1O [Oroxylin A]	–
750 ± 370 nM	–	O=c1c(O)c(-c2ccc(O)c(O)c2)oc2cc(O)cc(O)c12 [Quercetin]	–
–	2100 ± 310 nM	CCOc1cc(CC(=O)N[C@@H](CC(C)C)c2ccccc2N2CCCCC2)ccc1C(=O)O [Repaglinide]	–
–	950 ± 370 nM	O=C1C(CC[S+]([O-])c2ccccc2)C(=O)N(c2ccccc2)N1c1ccccc1 (centres unmarked) [Sulfinpyrazone]	–
7020 ± 3370 nM	–	O=C1c2c(O)cc(O)cc2OC(c2ccc(O)c(O)c2)C1O (centres unmarked) [Taxifolin]	–
–	860 ± 220 nM	CCCc1nc2c(C)cc(-c3nc4ccccc4n3C)cc2n1Cc1ccc(-c2ccccc2C(=O)O)cc1 [Telmisartan]	–
–	900 ± 90 nM	CCCCC(=O)N(Cc1ccc(-c2ccccc2-c2nnn[nH]2)cc1)[C@H](C(=O)O)C(C)C [Valsartan]	–
240 ± 40 nM	–	COc1c(O)cc(O)c2c(=O)cc(-c3ccccc3)oc12 [Wogonin]	–
11700 ± 6290 nM	–	COc1c(O[C@@H]2O[C@H](C(=O)O)[C@@H](O)[C@H](O)[C@H]2O)cc(O)c2c(=O)cc(-c3ccccc3)oc12 [Wogonoside]	–
